In brackets after ≈: the same amount, converted by molar mass.
Tests used:
Assay type in all cases: functional
[1] = tested on: Enterococcus faecalis; assay: Antibacterial activity against vancomycin-resistant Enterococcus faecalis by CLSI M7-A7 broth microdilution method
[2] = tested on: Moraxella catarrhalis; assay: Antibacterial activity against beta lactamase-positive Moraxella catarrhalis assessed as resistant isolates by CLSI M7-A7 broth microdilution method
[3] = tested on: Streptococcus pneumoniae; assay: Antibacterial activity against penicillin-resistant Streptococcus pneumoniae assessed as resistant isolates by CLSI M7-A7 broth microdilution method
[4] = tested on: Staphylococcus aureus; assay: Antibacterial activity against coagulase-negative and oxacillin-susceptible Staphylococcus aureus by CLSI M7-A7 broth microdilution method
[5] = tested on: Pasteurella multocida; assay: Antibacterial activity against Pasteurella multocida assessed as susceptible isolates by CLSI M7-A7 broth microdilution method
[6] = tested on: Staphylococcus aureus; assay: Antibacterial activity against methicillin-susceptible Staphylococcus aureus by CLSI M7-A7 broth microdilution method
[7] = tested on: Moraxella catarrhalis; assay: Antibacterial activity against beta lactamase-positive Moraxella catarrhalis assessed as susceptible isolates by CLSI M7-A7 broth microdilution method
[8] = tested on: Streptococcus agalactiae; assay: Antibacterial activity against erythromycin-nonsusceptible Streptococcus agalactiae assessed as susceptible isolates by CLSI M7-A7 broth microdilution method
[9] = tested on: Streptococcus agalactiae; assay: Antibacterial activity against erythromycin-nonsusceptible Streptococcus agalactiae by CLSI M7-A7 broth microdilution method
[10] = tested on: Enterococcus faecalis; assay: Antibacterial activity against vancomycin-resistant Enterococcus faecalis assessed as resistant isolates by CLSI M7-A7 broth microdilution method
[11] = tested on: Streptococcus pyogenes; assay: Antibacterial activity against erythromycin-susceptible Streptococcus pyogenes assessed as susceptible isolates by CLSI M7-A7 broth microdilution method
[12] = tested on: Staphylococcus aureus; assay: Antibacterial activity against coagulase-negative and oxacillin-resistant Staphylococcus aureus by CLSI M7-A7 broth microdilution method
[13] = tested on: Streptococcus viridans; assay: Antibacterial activity against penicillin-susceptible Streptococcus viridans assessed as resistant isolates by CLSI M7-A7 broth microdilution method
[14] = tested on: Streptococcus pneumoniae; assay: Antibacterial activity against penicillin-resistant Streptococcus pneumoniae assessed as susceptible isolates by CLSI M7-A7 broth microdilution method
[15] = tested on: Moraxella catarrhalis; assay: Antibacterial activity against beta lactamase-positive Moraxella catarrhalis by CLSI M7-A7 broth microdilution method
[16] = tested on: Streptococcus viridans; assay: Antibacterial activity against penicillin-nonsusceptible Streptococcus viridans assessed as resistant isolates by CLSI M7-A7 broth microdilution method
[17] = tested on: Streptococcus pneumoniae; assay: Antibacterial activity against penicillin-susceptible Streptococcus pneumoniae by CLSI M7-A7 broth microdilution method
[18] = tested on: Streptococcus pyogenes; assay: Antibacterial activity against erythromycin-nonsusceptible Streptococcus pyogenes assessed as susceptible isolates by CLSI M7-A7 broth microdilution method
[19] = tested on: Streptococcus viridans; assay: Antibacterial activity against penicillin-nonsusceptible Streptococcus viridans by CLSI M7-A7 broth microdilution method
[20] = tested on: Streptococcus pyogenes; assay: Antibacterial activity against erythromycin-susceptible Streptococcus pyogenes by CLSI M7-A7 broth microdilution method
[21] = tested on: Streptococcus pneumoniae; assay: Antibacterial activity against penicillin-susceptible Streptococcus pneumoniae assessed as resistant isolates by CLSI M7-A7 broth microdilution method
[22] = tested on: Streptococcus pyogenes; assay: Antibacterial activity against erythromycin-nonsusceptible Streptococcus pyogenes by CLSI M7-A7 broth microdilution method
[23] = tested on: Streptococcus agalactiae; assay: Antibacterial activity against erythromycin-nonsusceptible Streptococcus agalactiae assessed as resistant isolates by CLSI M7-A7 broth microdilution method
[24] = tested on: Enterococcus faecalis; assay: Antibacterial activity against vancomycin-susceptible Enterococcus faecalis assessed as susceptible isolates by CLSI M7-A7 broth microdilution method
[25] = tested on: Streptococcus viridans; assay: Antibacterial activity against penicillin-nonsusceptible Streptococcus viridans assessed as susceptible isolates by CLSI M7-A7 broth microdilution method
[26] = tested on: Enterococcus faecium; assay: Antibacterial activity against vancomycin-resistant Enterococcus faecium by CLSI M7-A7 broth microdilution method
[27] = tested on: Staphylococcus aureus; assay: Antibacterial activity against methicillin-resistant Staphylococcus aureus assessed as resistant isolates by CLSI M7-A7 broth microdilution method
[28] = tested on: Streptococcus viridans; assay: Antibacterial activity against penicillin-susceptible Streptococcus viridans assessed as susceptible isolates by CLSI M7-A7 broth microdilution method
[29] = tested on: Streptococcus pneumoniae; assay: Antibacterial activity against penicillin-susceptible Streptococcus pneumoniae assessed as susceptible isolates by CLSI M7-A7 broth microdilution method
[30] = tested on: Enterococcus faecalis; assay: Antibacterial activity against vancomycin-susceptible Enterococcus faecalis assessed as resistant isolates by CLSI M7-A7 broth microdilution method
[31] = tested on: Streptococcus pyogenes; assay: Antibacterial activity against erythromycin-nonsusceptible Streptococcus pyogenes assessed as resistant isolates by CLSI M7-A7 broth microdilution method
[32] = tested on: Enterococcus faecium; assay: Antibacterial activity against vancomycin-resistant Enterococcus faecium assessed as susceptible isolates by CLSI M7-A7 broth microdilution method
[33] = tested on: Enterococcus faecalis; assay: Antibacterial activity against vancomycin-susceptible Enterococcus faecalis by CLSI M7-A7 broth microdilution method
[34] = tested on: Staphylococcus aureus; assay: Antibacterial activity against coagulase-negative and oxacillin-susceptible Staphylococcus aureus assessed as resistant isolates by CLSI M7-A7 broth microdilution method
[35] = tested on: Staphylococcus aureus; assay: Antibacterial activity against methicillin-resistant Staphylococcus aureus assessed as susceptible isolates by CLSI M7-A7 broth microdilution method
[36] = tested on: Enterococcus faecalis; assay: Antibacterial activity against vancomycin-resistant Enterococcus faecalis assessed as susceptible isolates by CLSI M7-A7 broth microdilution method
[37] = tested on: Staphylococcus aureus; assay: Antibacterial activity against coagulase-negative and oxacillin-resistant Staphylococcus aureus assessed as resistant isolates by CLSI M7-A7 broth microdilution method
[38] = tested on: Pasteurella multocida; assay: Antibacterial activity against Pasteurella multocida assessed as resistant isolates by CLSI M7-A7 broth microdilution method
[39] = tested on: Streptococcus agalactiae; assay: Antibacterial activity against erythromycin-susceptible Streptococcus agalactiae by CLSI M7-A7 broth microdilution method
[40] = tested on: Staphylococcus aureus; assay: Antibacterial activity against coagulase-negative and oxacillin-susceptible Staphylococcus aureus assessed as susceptible isolates by CLSI M7-A7 broth microdilution method
[41] = tested on: Streptococcus viridans; assay: Antibacterial activity against penicillin-susceptible Streptococcus viridans by CLSI M7-A7 broth microdilution method
[42] = tested on: Enterococcus faecium; assay: Antibacterial activity against vancomycin-resistant Enterococcus faecium assessed as resistant isolates by CLSI M7-A7 broth microdilution method
[43] = tested on: Streptococcus pneumoniae; assay: Antibacterial activity against penicillin-resistant Streptococcus pneumoniae by CLSI M7-A7 broth microdilution method
[44] = tested on: Streptococcus agalactiae; assay: Antibacterial activity against erythromycin-susceptible Streptococcus agalactiae assessed as susceptible isolates by CLSI M7-A7 broth microdilution method
[45] = tested on: Pasteurella multocida; assay: Antibacterial activity against Pasteurella multocida by CLSI M7-A7 broth microdilution method
[46] = tested on: Staphylococcus aureus; assay: Antibacterial activity against methicillin-susceptible Staphylococcus aureus assessed as resistant isolates by CLSI M7-A7 broth microdilution method
[47] = tested on: Staphylococcus aureus; assay: Antibacterial activity against coagulase-negative and oxacillin-resistant Staphylococcus aureus assessed as susceptible isolates by CLSI M7-A7 broth microdilution method
[48] = tested on: Staphylococcus aureus; assay: Antibacterial activity against methicillin-susceptible Staphylococcus aureus assessed as susceptible isolates by CLSI M7-A7 broth microdilution method
[49] = tested on: Staphylococcus aureus; assay: Antibacterial activity against methicillin-resistant Staphylococcus aureus by CLSI M7-A7 broth microdilution method

Structure (SMILES): CC[C@H]1OC(=O)[C@H](C)[C@@H](O[C@H]2C[C@@](C)(OC)[C@@H](O)[C@H](C)O2)[C@H](C)[C@@H](O[C@@H]2O[C@H](C)C[C@H](N(C)C)[C@H]2O)[C@](C)(O)C[C@@H](C)C(=O)[C@H](C)[C@@H](O)[C@]1(C)O [ERYTHROMYCIN]
- MIC [1]: > 1 µg/mL
- Activity [2]: 0%
- Activity [3]: 71.6%
- MIC50 [4]: 1 µg/mL (≈ 1.36 µM)
- MIC90 [4]: > 8 µg/mL
- Activity [5]: 4.5%
- MIC50 [6]: 0.5 µg/mL (≈ 0.681 µM)
- MIC90 [6]: > 8 µg/mL
- Activity [7]: 100%
- Activity [8]: 0%
- MIC50 [9]: 16 µg/mL (≈ 21.8 µM)
- MIC90 [9]: > 16 µg/mL
- Activity [10]: 96%
- Activity [11]: 100%
- MIC50 [12]: > 8 µg/mL
- Activity [13]: 40.2%
- Activity [14]: 28.4%
- MIC [15]: ≤ 0.12 µg/mL
- MIC50 [15]: ≤ 0.12 µg/mL
- MIC90 [15]: ≤ 0.12 µg/mL
- Activity [16]: 71.4%
- MIC50 [17]: 0.03 µg/mL (≈ 0.0409 µM)
- MIC90 [17]: 0.5 µg/mL (≈ 0.681 µM)
- Activity [18]: 0%
- MIC50 [19]: 2 µg/mL (≈ 2.73 µM)
- MIC90 [19]: > 16 µg/mL
- MIC50 [20]: 0.03 µg/mL (≈ 0.0409 µM)
- MIC90 [20]: 0.06 µg/mL (≈ 0.0818 µM)
- Activity [21]: 9.9%
- MIC50 [22]: 8 µg/mL (≈ 10.9 µM)
- MIC90 [22]: > 16 µg/mL
- Activity [23]: 92.9%
- Activity [24]: 10.2%
- Activity [25]: 21.4%
- MIC50 [26]: > 8 µg/mL
- MIC90 [26]: > 8 µg/mL
- Activity [27]: 94.4%
- Activity [28]: 58.6%
- Activity [29]: 89.1%
- Activity [30]: 59.9%
- Activity [31]: 80%
- Activity [32]: 0%
- MIC50 [33]: > 8 µg/mL
- MIC90 [33]: > 8 µg/mL
- Activity [34]: 49.3%
- Activity [35]: 4.5%
- Activity [36]: 0%
- Activity [37]: 81.3%
- Activity [38]: 77.3%
- MIC50 [39]: 0.03 µg/mL (≈ 0.0409 µM)
- MIC90 [39]: 0.06 µg/mL (≈ 0.0818 µM)
- Activity [40]: 49.8%
- MIC50 [41]: 0.06 µg/mL (≈ 0.0818 µM)
- MIC90 [41]: 4 µg/mL (≈ 5.45 µM)
- Activity [42]: 92.3%
- MIC50 [43]: 8 µg/mL (≈ 10.9 µM)
- MIC90 [43]: > 16 µg/mL
- Activity [44]: 100%
- MIC50 [45]: 2 µg/mL (≈ 2.73 µM)
- MIC90 [45]: 4 µg/mL (≈ 5.45 µM)
- Activity [46]: 32.5%
- Activity [47]: 18.4%
- Activity [48]: 65.2%
- MIC50 [49]: > 8 µg/mL

Reference: ChEMBL document CHEMBL1671626, “In vitro profiling of ceftaroline against a collection of recent bacterial clinical isolates from across the United States” (2008)
